Experimental data: US9388126B2, “Sigma receptor ligands and methods of modulating cellular protein homeostasis using same” (Drexel University, priority 2012, dated 2016)

How the values were obtained:
Type in all cases: cell-based, human
[1] = test system: MDA-MB-468 (GFP-LC3) cells; experiment: GFP-LC3 punctae (autophagosome formation) microscopy assay; settings: for mean number of punctae per cell: 10 μM
Protocol: The human GFP-LC3 expression plasmid, pEGFP-LC3 (a gift from Drs. Grazia Ambrosini and Gary K. Schwartz, MSKCC), was stably transfected into MDA-MB-468 and selected with 0.5 mg/ml G418 sulfate. Stable populations were generated and compared to parental MDA-MB-468 for Sigma1 expression and autophagic and growth inhibitory response to Sigma ligands. GFP-LC3 translocation (punctae formation) was assessed by microscopy in MDA-MB-468 (GFP-LC3) stable cell populations. For microscopy-based experiments, cells were seeded onto Lab-Tek II glass chamber slides (Nalge Nunc International). […] Images of GFP-LC3 punctae were acquired with a Zeiss Axioplan 2 Imaging widefield microscope using Axiovision LE software. Punctae were counted using the spot quantitation program in the Fluoro-Chem software package (Alpha Innotech) and confirmed in parallel by manual counting. Autophagosome formation in MDAMB-468 (GFP-LC3) cells was quantitated as the mean number of GFP-LC3 punctae per GFP positive cell.
Initially, an established immunoblot-based assay to detect microtubule associated protein light chain 3 (LC3) lipidation was used to test for the activation of autophagy. […] Since transient transfections can produce spurious GFP-LC3 aggregates, stable GFP-LC3 transfected populations of MDA-MB-468 (GFP-LC3) were generated. […]

[2] = test system: MDA-MB-468 cells; experiment: Cell size by flow cytometry (mean FSC-H, G1 phase); settings: 10 μM, 24 hours
Protocol: FIG. 11 is a graph illustrating decrease in MDAMB468 cell size associated with the Sigma1 antagonist treatment. MDA-MB-468 cells were treated for 24 hours with DMSO (control), 10 μM IPAG (antagonist), or 10 μM PRE084 (agonist). Cell size was quantitated by flow cytometry, using a Becton Dickinson FACS Calibur flow cytometer with Cell Quest software. The mean forward scatter height (FSC-H) of the G1-phase population was determined as a measure of relative cell size. Single cells were gated away from aggregated cells using an FL2-width versus FL-2 area dot plot. Mean FSC-H±S.E. was calculated from at least 4 independent determinations. For each FSC-H determination, FACS analysis was performed on 10,000 single cells. The mean FSC-H of DMSO (control) and PRE084 treated MDA-MB-468 measured 370±6 and 372±7, respectively, whereas the mean FSC-H of IPAG treated MDA-MB-468 cells was 323±4. ** P<0.01 for IPAG compared to DMSO and IPAG compared to PRE084.
FIG. 31A is a differential interference contrast (DIC) image of MDA-MB-468 breast adenocarcinoma cells treated for ˜20 hours with DMSO (drug vehicle control), 10 μM IPAG (antagonist) or 10 μM PRE084 (agonist). A twenty-micron bar is shown in each image. Data are presented as mean±SEM. FIG. 31B is a graph illustrating the finding that IPAG diminished the mean cell size (FSC-H) of MDA-MB-468 breast tumor cells in a time-responsive manner. The mean FSC-H of 370±5 at to decreased to 323±4 after 24 hours of IPAG treatment and to 267±2 after 48 hours of treatment. Two-tailed t-tests were performed to determine statistical significance. For IPAG treatment compared to control (DMSO) and Sigma agonists (SKF and PRE084), P=0.0002 at d1 and P=0.00013 at d2. Data were generated from three to five independent determinations for each time-point. […] T-47D were treated for 24 h with 1 and 10 μM IPAG, and mean FSC-H was measured. […] For FIGS. 31B-31E, the mean FSC-H was determined for each cell cycle population (i.e., G1, S, G2/M), and data is shown for G1 phase cells. […]

[3] = test system: T-47D breast adenocarcinoma cells; experiment: Cell size by flow cytometry (mean FSC-H, G1 phase); settings: 10 μM, 24 hours; control 412±5
Protocol: FIG. 31A is a differential interference contrast (DIC) image of MDA-MB-468 breast adenocarcinoma cells treated for ˜20 hours with DMSO (drug vehicle control), 10 μM IPAG (antagonist) or 10 μM PRE084 (agonist). A twenty-micron bar is shown in each image. Data are presented as mean±SEM. FIG. 31B is a graph illustrating the finding that IPAG diminished the mean cell size (FSC-H) of MDA-MB-468 breast tumor cells in a time-responsive manner. The mean FSC-H of 370±5 at to decreased to 323±4 after 24 hours of IPAG treatment and to 267±2 after 48 hours of treatment. Two-tailed t-tests were performed to determine statistical significance. For IPAG treatment compared to control (DMSO) and Sigma agonists (SKF and PRE084), P=0.0002 at d1 and P=0.00013 at d2. Data were generated from three to five independent determinations for each time-point. Flow cytometry was used to measure mean cell size (mean FSC-H) of T-47D breast adenocarcinoma cells. FIG. 31C is a bar graph illustrating T-47D cells treated for 24 hours with 10 μM indicated Sigma ligand. IPAG and BD 1047 (Sigma1 antagonists) diminished cell size from a mean FSC-H of 412±5 for control (DMSO) cells versus 341±7 and 381±8 for IPAG and BD1047 treated cells, respectively. […] Data represent 5 independent determinations (*P<0.05, ***P<0.001). FIG. 31D is a bar graph illustrating how IPAG (antagonist) decreases cell size in a dose responsive manner. T-47D were treated for 24 h with 1 and 10 μM IPAG, and mean FSC-H was measured. FIG. 31E is a graph illustrating that T47D cell size decreases over time. T-47D cells were treated for a total of 48 hours with 10 μM of the indicated Sigma ligands. […] Neither Sigma1 agonist, (+)-SKF10047 and PRE084, altered cell size. […] Two-tailed t-tests were performed to determine statistical significance. For IPAG treatment compared to control (DMSO) and Sigma1 agonists (SKF and PRE084), P=0.0002 at d1 and P<0.0001 at d2. For FIGS. 31B-31E, the mean FSC-H was determined for each cell cycle population (i.e., G1, S, G2/M), and data is shown for G1 phase cells. S and G2/M phase cells responded similarly (data not shown).

[4] = test system: MCF-7, T47D, DU145, PC3, HepG2 and Panc1 cells; experiment: LC3BII immunoblot in a range of tumor cell lines; settings: 10 μM, 24 hours
Protocol: FIG. 36, comprising FIGS. 36A-36C, illustrates Sigma1 antagonist associated autophagy. FIG. 36A, comprises representative images of translocation of GFP-tagged LC3 (LC3-GFP) into autophagosomes in MDA-MB-468 (MDA468) breast adenocarcinoma cells. Only antagonist-treated MDA-MB-468 cells presented LC3-GFP translocation to autophagosomes: […]. […] The images are representative of at least 80 fields for each treatment condition. FIG. 36B is an image of an immunoblot illustrating the finding that formation of GFP-LC3II the formation of GFP-LC3 positive punctae, an indicator of autophagosome formation. Protein extracts from MDA-MB-468 cells stably transfected with and expressing GFP-LC3, treated for 24 hours with 10 μM of the indicated Sigma1 ligand. FIG. 36C comprises images of immunoblots illustrating that increased levels of the microtubule associated protein light chain 3BII isoform (LC3BII) is another broadly used indicator of activated autophagy. […] Legend: MCF-7 (breast adenocarcinoma), T47D (breast adenocarcinoma), DU145 (prostate adenocarcinoma), PC3 (prostate adenocarcinoma), HepG2 (hepatocellular carcinoma), and Panc1 (pancreatic adenocarcinoma).

[5] = test system: MDA-MB-468 breast adenocarcinoma cells; experiment: LC3 lipidation (LC3II) immunoblot; settings: 10 μM, 24 hours
Protocol: Cells were lysed and proteins extracted in a modified RIPA buffer (25 mM Tris-HCl pH 7.6, 150 mM NaCl, 1% NP-40, 1% sodium deoxycholate and 0.1% SDS) supplemented with 10% glycerol (volume/volume), complete protease inhibitor cocktail (Roche), and Halt phosphatase inhibitor cocktail (Pierce). Approximately 10-20 μg of detergent soluble protein were resolved on NOVEX 10-20% polyacrylamide Tris-glycine gels (InVitrogen). Immunoblots were performed in a 20 mM Tris-buffered 137 mM saline solution (pH 7.6) containing 0.1% Tween-20 (polyoxyethylene (20) sorbitan monolaurate) and 5% (weight/volume) blotting grade non-fat dry milk (BioRad). The Lumigen PS-3 enhanced chemiluminescence kit (GE Healthcare) was used to reveal immunoblotted proteins.
Initially, an established immunoblot-based assay to detect microtubule associated protein light chain 3 (LC3) lipidation was used to test for the activation of autophagy. […] Since transient transfections can produce spurious GFP-LC3 aggregates, stable GFP-LC3 transfected populations of MDA-MB-468 (GFP-LC3) were generated. These cells were treated for 24 hours with increasing concentrations of Sigma receptor antagonists and agonists, and were compared to basal and DMSO treated controls (FIGS. 4B & 4C).

[6] = test system: MCF-7, T47D and MDA-MB-468 cells; experiment: Cell proliferation by Alamar blue reduction, breast adenocarcinoma cultures; settings: after 4 days of treatment, six drug concentrations
Text: In vitro cell proliferation was quantitated by Alamar blue reduction. The anti-proliferative effects of six drug concentrations of the indicated drugs were quantitated after 4 days of treatment.

[7] = test system: PC3 cells; experiment: PC3 cell death by trypan blue exclusion; settings: 5 μM
Protocol: FIG. 1, comprising FIGS. 1A-1B, illustrates prostate adenocarcinoma cell death induced by Sigma1 antagonists. […] Quantitated cell death was presented as the percentage of trypan blue positive cells per drug treated population. Salient cell death occurred following ˜24-48 hours of treatment with the Sigma antagonist.
Cell death was evaluated by trypan blue exclusion assay, as well as cleaved caspase 3 (Asp 175) and cleaved PARP (Asp 214) immunoblot. Trypan blue exclusion and propidium iodide staining were used to quantify general cell death and the presence of apoptotic cell death was confirmed by immunoblot. The percentage of dead cells in a given population was determined by quantifying the number of trypan blue positive (dead) cells and dividing by the total number of trypan blue positive and negative cells.

[8] = test system: PC3 prostate cancer cells; experiment: LC3BII immunoblot, prostate cancer cells; settings: 10 μM, 24 hours
Protocol: FIG. 16, comprising FIGS. 16A-16B, illustrates Sigma antagonist associated autophagy. FIG. 16A illustrates representative images of the translocation of GFP-tagged LC3 (LC3-GFP) into autophagosomes in a control (DMSO) group and a haloperidol-treated group (10 μM, antagonist). FIG. 16B is an image of a gel illustrating increased levels of the microtubule-associated protein light chain 3BII isoform (CL3BII), which is a broadly used indicator of activated autophagy.
Sigma antagonist-induced ER stress led to the activation of autophagy in several tumor cell lines, including PC3 prostate cancer cells (FIG. 16). In preliminary experiments, an immunoblot assay was performed to detect the formation of the lipid-conjugated form of microtubule associated protein light chain 3 (LC3II), a widely used marker of autophagosome formation (FIG. 16).

[9] = test system: PC3 and DU145 PCa cells; experiment: UPR induction in prostate cancer cell lines; settings: preliminary experiments
Text: FIG. 15 is an image of an immunoblot illustrating induction of UPR in a prostate cancer cell line. […] P-IRE1α indicates phosphorylated IRE1α. Similar results were obtained with DU145 prostate cancer cells.
This might be due to an accumulation of ubiquitylated proteins or due to an increase in ubiquitin ligase activity. Progression of the ER stress response could be monitored by a set of markers, many of which have been directly linked to the UPR. The most extensively investigated sensors that initiate the UPR are IRE1α, PERK, and ATF6, which transduce signals to a cascade of effectors. Many of these UPR 4 effectors function as transcription factors that induce the synthesis of ER chaperones, such as GRP78/BiP and GRP94, involved in maintaining protein homeostasis.

[10] = test system: PC3 prostate adenocarcinoma cells; experiment: Ubiquitin (P4D1) immunoblot, prostate adenocarcinoma cells; settings: 10 μM

| SMILES | GFP-LC3 punctae per cell ([1]; drug concentrations up to 100 μM, 24 hours) | mean FSC-H (relative cell size) [2] | mean FSC-H (relative cell size) [3] | LC3BII levels [4] | mean number of punctae per cell ([1]; 24 hours, knockdown of Beclin1) [punctae per cell] | mean number of punctae per cell ([1]; 24 hours, without Beclin1 knockdown) [punctae per cell] | concentration at which precipitous cell death occurred ([1]; following 24 hours of treatment) [µM] | conversion of LC3 to LC3II (autophagosome formation) [5] | inhibition of cell proliferation [6] | treatment time after which salient cell death occurred [7] [h] | LC3BII levels [8] | IRE1α and BiP levels [9] | level of ubiquitinated proteins [10] |
| --- | --- | --- | --- | --- | --- | --- | --- | --- | --- | --- | --- | --- | --- |
| O=C(OCCN1CCOCC1)C1(c2ccccc2)CCCCC1 [PRE-084, 2-morpholin-4-ylethyl 1-phenylcyclohexane-1-carboxylate] | no more than 6±2 punctae per cell | 372±7 | did not alter cell size | did not significantly alter basal autophagy |  |  |  |  |  |  |  |  |  |
| O=C(CCCN1CCC(O)(c2ccc(Cl)cc2)CC1)c1ccc(F)cc1 [haloperidol, 4-[4-(4-chlorophenyl)-4-hydroxy-1-piperidyl]-1-(4-fluorophenyl)-butan-1-one] |  |  |  |  | 17±1 | 36±4 | 40 | converted LC3 to LC3II | also inhibited cell proliferation | 24 to 48 | salient induction of LC3BII levels | salient induction of IRE1α and BiP levels | increased level of ubiquinated proteins |
